Experimental data: US9717681B2, “Formulations containing substituted imidazole derivatives” (R.P. Scherer Technologies, LLC, priority 2002, dated 2017)

Columns and labels:
[1] = Protocol A: fipamezole administered orally in solution to healthy volunteers, pharmacokinetics, safety and tolerability; assay type: in vivo, human; conditions: for Cmax / Tmax / AUC(0-t) / half-life: male, human, plasma; for Cmax: po, human plasma
Experimental: (§1) Fipamezole was administered orally in solution in increasing doses (0.5, 1, 3, 9, 18, 30 and 60 mg) to healthy volunteers (Caucasian males, 18-35 years old, 60-90 kg body weight). Blood samples were taken at intervals for pharmacokinetic evaluation up to 24 hours after each dose. Concentrations of fipamezole in plasma were measured with HPLC-MS/MS. Safety and tolerability were evaluated by standard safety laboratory determinations, ECG recordings, blood pressure and heart rate measurements and by adverse event questioning. The pharmacokinetics were evaluated using the Topfit 2.0 pharmacokinetic program. Cmax and tmax were read from the concentration vs. time curves and the apparent elimination phase half lives from the semi-logarithmic terminal part of the curve. AUC values were calculated both for infinity and up to the last measurable data point.

[2] = Protocol B: fipamezole administered as buccal spray to healthy volunteers, pharmacokinetics and tolerability; assay type: in vivo, human; conditions: for Cmax: human plasma
Experimental: as §1, with “point. […] The protocol used was substantially as for protocol A, except administration was by buccal spray (0.75, 1.5, 3, 7.5, 15, 30, 60 and 90 mg single doses).” for “point.”

[3] = Pharmacokinetics of fast dispersing dosage form in dogs; assay type: in vivo, beagle dogs
Experimental: In this study fipamezole was administered orally as a fast dispersing tablet (formulation as for Example 3 above) (20 mg/kg) via the buccal cavity to pure bred beagle dogs (1 male and 1 female). Throughout the study (8 days, and 4 days pre-study) the subjects were monitored for viability, changes in behaviour, reaction to treatment and ill-health. In addition, body weight and food consumption were recorded. Blood was collected at 10, 20, 30 and 45 minutes and 1, 1.25, 1.5, 2, 2.5, 3, 4 and 8 hours after administration for plasma level analysis (LC/MS/MS method).

[4] = beagle dogs, fast dispersing tablet (formulation as Example 3), 20 mg/kg via buccal cavity

CCC1(c2c[nH]cn2)Cc2ccc(F)cc2C1.Cl (centres unmarked) [fipamezole, 4-(2-ethyl-5-fluoro-indan-2-yl)-1H-imidazole, hydrochloride salt]
Cmax ([1]; 0.5 mg): 0.05 ng/mL | Cmax ([1]; 1 mg): 0.08 ng/mL | Cmax ([1]; 3 mg): 0.23 ng/mL | Cmax ([1]; 9 mg): 1.09 ng/mL | Cmax ([1]; 18 mg): 1.31 ng/mL | Cmax ([1]; 60 mg): ~2 ng/mL | Tmax ([1]; oral solution, dose 0.5 mg): 0.88 h | AUC(0-t) ([1]; oral solution, dose 1 mg): 0.1 ng·h/mL | Tmax ([1]; oral solution, dose 1 mg): 0.83 h | AUC(0-t) ([1]; oral solution, dose 3 mg): 0.3 ng·h/mL | Tmax ([1]; oral solution, dose 3 mg): 0.67 h | AUC(0-t) ([1]; oral solution, dose 9 mg): 4.2 ng·h/mL | Tmax ([1]; oral solution, dose 9 mg): 0.67 h | half-life ([1]; oral solution, dose 9 mg): 2.2 h | AUC(0-t) ([1]; oral solution, dose 18 mg): 6 ng·h/mL | Tmax ([1]; oral solution, dose 18 mg): 0.83 h | half-life ([1]; oral solution, dose 18 mg): 2.4 h | AUC(0-t) ([1]; oral solution, dose 30 mg): 6.8 ng·h/mL | Tmax ([1]; oral solution, dose 30 mg): 1.25 h | half-life ([1]; oral solution, dose 30 mg): 3.1 h | AUC(0-t) ([1]; oral solution, dose 60 mg): 8.2 ng·h/mL | Tmax ([1]; oral solution, dose 60 mg): 1.06 h | half-life ([1]; oral solution, dose 60 mg): 1.8 h | Level of absorption vs dose ([1]; oral solution, 0.5-60 mg): not dose-proportional | Safety and tolerability ([1]; oral solution, 0.5-60 mg, healthy volunteers): safe and well tolerated | Absorption from the buccal mucosa into systemic circulation [2]: rapidly absorbed in a dose-dependent manner | Relation between dose and Cmax and AUC0-inf values [2]: linear correlation | Tolerability ([2]; all doses 0.75-90 mg single doses): well tolerated | Tmax ([2]; dose 0.75 mg): 0.72 h | Tmax ([2]; dose 1.5 mg): 0.72 h | Tmax ([2]; dose 7.5 mg): 0.72 h | Tmax ([2]; dose 15 mg): 0.72 h | Tmax ([2]; dose 30 mg): 0.72 h | Cmax ([2]; dose 30 mg): 49.23 ng/mL | Adverse effects seen after administration ([2]; frequently seen after administration): buccal erythema and whitening | Cmax ([2]; male, dose 0.75 mg, read-out: Cmax): 1.53 ng/mL | Cmax ([2]; male, dose 1.5 mg, read-out: Cmax): 3.13 ng/mL | Cmax ([2]; male, dose 3 mg, read-out: Cmax): 4.76 ng/mL | Cmax ([2]; male, dose 7.5 mg, read-out: Cmax): 13 ng/mL | Cmax ([2]; male, dose 15 mg, read-out: Cmax): 25.9 ng/mL | Cmax ([2]; male, dose 60 mg, read-out: Cmax): 92.9 ng/mL | Cmax ([2]; male, dose 90 mg, read-out: Cmax): 172 ng/mL | AUC(0-t) ([2]; male, human, plasma, dose 0.75 mg): 4.6 ng·h/mL | half-life ([2]; male, human, plasma, dose 0.75 mg, read-out: t1/2 (converted)): 1.47 h | AUC(0-t) ([2]; male, human, plasma, dose 1.5 mg): 9.99 ng·h/mL | half-life ([2]; male, human, plasma, dose 1.5 mg, read-out: t1/2 (converted)): 1.65 h | AUC(0-t) ([2]; male, human, plasma, dose 3 mg): 15.4 ng·h/mL | half-life ([2]; male, human, plasma, dose 3 mg, read-out: t1/2 (converted)): 1.6 h | Tmax ([2]; male, human, plasma, dose 3 mg, read-out: tmax): 0.78 h | AUC(0-t) ([2]; male, human, plasma, dose 7.5 mg): 40.8 ng·h/mL | half-life ([2]; male, human, plasma, dose 7.5 mg, read-out: t1/2 (converted)): 1.78 h | AUC(0-t) ([2]; male, human, plasma, dose 15 mg): 84.1 ng·h/mL | half-life ([2]; male, human, plasma, dose 15 mg, read-out: t1/2 (converted)): 1.97 h | AUC(0-t) ([2]; male, human, plasma, dose 30 mg): 157 ng·h/mL | half-life ([2]; male, human, plasma, dose 30 mg, read-out: t1/2 (converted)): 2.12 h | AUC(0-t) ([2]; male, human, plasma, dose 60 mg): 231 ng·h/mL | half-life ([2]; male, human, plasma, dose 60 mg, read-out: t1/2 (converted)): 3 h | Tmax ([2]; male, human, plasma, dose 60 mg, read-out: tmax): 0.46 h | AUC(0-t) ([2]; male, human, plasma, dose 90 mg): 467 ng·h/mL | half-life ([2]; male, human, plasma, dose 90 mg, read-out: t1/2 (converted)): 3.16 h | Tmax ([2]; male, human, plasma, dose 90 mg, read-out: tmax): 0.53 h | half-life ([2]; male, human, plasma, range over doses, longer times at larger doses, read-out: Apparent elimination phase half life): 1.2 to 3.5 h | Absorption [3, 4]: rapidly absorbed | Time to peak plasma concentration [3, 4]: ≤ 10 min | Effect on body weight ([3]; beagle dogs, fast dispersing tablet, 20 mg/kg): no adverse effect | Food consumption on the day of administration ([3]; beagle dogs, fast dispersing tablet, 20 mg/kg, probably due to frequent blood collection): low | Adverse clinical signs ([3]; female beagle dog, fast dispersing tablet (formulation as Example 3), 20 mg/kg via buccal cavity): No adverse clinical signs | Adverse clinical signs ([3]; male beagle dog, fast dispersing tablet (formulation as Example 3), 20 mg/kg via buccal cavity): elevated pulse rate
